# Measurements from patent US20050148523A1, “Method of treating HIV infection in atazanavir-resistant patients using a combination of atazanavir and another protease inhibitor” (priority 2003, published 2005).
# Like-named read-outs stand apart in the source and are kept apart here.
# Columns and labels:
# HIV-1 protease = HIV-1 protease (Human immunodeficiency virus type 1 group M subtype B, UniProt P04585); details: cited from earlier work
# [1] = tested on: HIV-1 in treatment naive patients; assay: Clinical study AI424-007/041, virological outcomes and resistance; type: in vivo, human; details: study 007/041
# From the text: (§1) Study Population. Viral samples (baseline and on-treatment, where available) were obtained from patients who experienced virologic failure while enrolled in studies AI424-007/041 [12] (ATV+d4T and ddI), AI424-008/044 [13, 14] (ATV+d4T and 3TC) and AI424-034 [9] (ATV or EFV in combination with ZDV and 3TC). […] In general, virologic failure specimens were selected for further resistance evaluation only if they contained >1,000 copies/mL HIV-1 RNA and there was no indication that the specimen came from a patient at a time of transient non-adherence to study drug(s). […] For non-responders, samples from week 16 (or 24) were tested. Drug adherence was determined from pill counts of returned study medications at each scheduled visit.
# (§2) ATV resistance was defined as ≧2-fold decrease in ATV susceptibility from baseline, a Fold Change (FC) of ≧2.5 (relative to the Nl4-3 reference strain), or evidence of an isoleucine (Ile) to leucine (Leu) change at amino acid residue 50 (I50L). Resistance levels for NFV and EFV were also defined as a FC reaching 2.5.
# [2] = tested on: clinical isolates containing an I50V; assay: PhenoSense phenotypic susceptibility of clinical isolates containing I50V; type: cell-based, HIV-1
# From the text: (§3) Drug Susceptibility Assays. Clinical isolates were subjected to phenotypic (PhenoSense™) and genotypic (GeneSeq™) analysis by Virologic, Inc. as described elsewhere.
# Because an I50V substitution is a signature mutation sometimes associated with APV resistance, the cross-resistance relationship between ATV and APV was further examined.
# [3] = tested on: HIV-1 in treatment naive patients on ATV containing regimens; assay: Pooled resistance analysis of studies AI424-007/041, 008/044 and 034; type: in vivo, human; details: patients with I50L, N=10
# From the text: as §1, §2
# [4] = tested on: HIV-1 in treatment naive patients; assay: Clinical study AI424-008/044, virological outcomes and resistance; type: in vivo, human; details: study 008/044
# From the text: as §1, §2
# [5] = tested on: clinical isolates containing a D30N substitution; assay: PhenoSense phenotypic susceptibility of clinical isolates containing D30N; type: cell-based, HIV-1; details: 75 D30N containing isolates, FIG. 3
# Description: as §3
# Comparative Studies of I50L and D30N Containing Viruses. […] Comparative studies were performed on the 18 phenotyped viruses containing an I50L and 75 clinical isolates containing a D30N substitution without evidence of cross-resistance (FC≧2.5) to other PIs.
# [6] = tested on: recombinant HIV-1 viruses (NL4-3, RF, LAI) in MT-2 cells; assay: MT-2 cell susceptibility assay of recombinant viruses; type: cell-based
# Description: Cells and Viruses. MT-2 cells, HIV-1 RF, HIV1-LAI, and the HIV-1 NL4-3 proviral clones were obtained through the AIDS Research and Reference Reagent Program, National Institutes of Health. MT-2 cells were cultured in RPMI 1640 medium supplemented with 10% fetal bovine serum, 2 mM L-glutamine, and 10 mM Hepes buffer. HIV-1 viruses were generated by transient transfection of the proviral DNA into Human Embryonic Kidney 293 cells using Lipofectamine reagents (Gibco BRL). The viruses were harvested 72 hr post-transfection, amplified in MT-2 cells, and titered in the same cells using a virus yield assay.
# Recombinant HIV-1 Variants and Chimeric NL4-3 Proviral Clones. HIV-1 strains with defined substitutions in the protease gene were generated by QuikChange® site-directed mutagenesis as recommended by the manufacturer (Stratagene). Recombinant NL4-3 and LAI proviral clones containing the wild-type and mutant protease genes from RF and clinical isolates were constructed by replacing the SseI/ApaI fragment of pNL4-3 with the appropriate SseI/ApaI protease fragments.
# Recombinant viruses (generated separately from those made for PhenoSense assays) were tested in an MT-2 cell susceptibility assay at Bristol Myers Squibb. MT-2 cells were infected with recombinant viruses at a multiplicity of infection (MOI) of 0.005 50% tissue culture infective doses (TCID50)/cell followed by incubation in the presence or absence of serially diluted protease inhibitors for 4 to 7 days. Virus yields were quantified using a RT assay as previously described. The results from at least four independent experiments were used to calculate the EC50.
# [7] = tested on: clinical isolates exhibiting a wide array of PI resistance profiles; details: cited from earlier work
structure (smiles),measurement,setting,value
"COC(=O)N[C@H](C(=O)N[C@@H](Cc1ccccc1)[C@@H](O)CN(Cc1ccc(-c2ccccn2)cc1)NC(=O)[C@@H](NC(=O)OC)C(C)(C)C)C(C)(C)C [ATV, atazanavir]",Ki,HIV-1 protease,< 1 nM
same,Virologic Failures (%),[1],21%
same,"Virologic Failures, number",[1],51
same,number of the eight isolates with FC less than 1.0,[2]; 8 I50V isolates resistant to APV,Seven
same,"Susceptibility, Fold Change in EC50 relative to reference strain",[2]; Isolate with I50V 1,0.3 Fold Change
same,"Susceptibility, Fold Change in EC50 relative to reference strain",[2]; Isolate with I50V 2,0.4 Fold Change
same,"Susceptibility, Fold Change in EC50 relative to reference strain",[2]; Isolate with I50V 3,0.6 Fold Change
same,"Susceptibility, Fold Change in EC50 relative to reference strain",[2]; Isolate with I50V 4,1.2 Fold Change
same,"Susceptibility, Fold Change in EC50 relative to reference strain",[2]; Isolate with I50V 5,0.4 Fold Change
same,"Susceptibility, Fold Change in EC50 relative to reference strain",[2]; Isolate with I50V 6,0.8 Fold Change
same,"Susceptibility, Fold Change in EC50 relative to reference strain",[2]; Isolate with I50V 7,0.5 Fold Change
same,"Susceptibility, Fold Change in EC50 relative to reference strain",[2]; Isolate with I50V 8,0.5 Fold Change
same,number of the eight isolates with FC of 0.4 or less,[2]; {},3
same,mean time to virologic failure,[3],50 weeks
same,Virologic Failures (%),[4],24%
same,"Virologic Failures, number",[4],88
same,median FC,[5],small median decreases in susceptibility
same,EC50,"[6]; Human immunodeficiency virus 1, NL43, MT2, LAI A71V, read-out: ATV phenotype (value before parenthesis, EC50)",3.7 ± 0.9 nM
same,EC50,"[6]; Human immunodeficiency virus 1, NL43, MT2, LAI Control, read-out: ATV phenotype (value before parenthesis, EC50)",1.5 ± 0.3 nM
same,EC50,"[6]; Human immunodeficiency virus 1, NL43, MT2, LAI I50L, read-out: ATV phenotype (value before parenthesis, EC50)",8.2 ± 3.4 nM
same,EC50,"[6]; Human immunodeficiency virus 1, NL43, MT2, NL4-3 020: I50L + M46I, L63P, H69Q, V77I, I93L, read-out: ATV phenotype (value before parenthesis, EC50)",1.9 ± 0.5 nM
same,EC50,"[6]; Human immunodeficiency virus 1, NL43, MT2, NL4-3 100A: I50L + L63P, K70R, A71V, N88S, read-out: ATV phenotype (value before parenthesis, EC50)",22.9 ± 6.4 nM
same,EC50,"[6]; Human immunodeficiency virus 1, NL43, MT2, NL4-3 100B: I50L + L63P, K70R, A71V, G73S, read-out: ATV phenotype (value before parenthesis, EC50)",27.8 ± 2.8 nM
same,EC50,"[6]; Human immunodeficiency virus 1, NL43, MT2, NL4-3 296: I50L + K45R, L63P, A71V, G73S, V77I, I93L, read-out: ATV phenotype (value before parenthesis, EC50)",7.1 ± 1.6 nM
same,EC50,"[6]; Human immunodeficiency virus 1, NL43, MT2, NL4-3 347: I50L + I13V, E35D, M36I, M46L, L63P, A71V, V82A, read-out: ATV phenotype (value before parenthesis, EC50)",12.1 ± 1.4 nM
same,EC50,"[6]; Human immunodeficiency virus 1, NL43, MT2, NL4-3 372: I50L + L10I, L63P, G73S, I93L, read-out: ATV phenotype (value before parenthesis, EC50)",9.8 ± 0.7 nM
same,EC50,"[6]; Human immunodeficiency virus 1, NL43, MT2, NL4-3 398: I50L + E35D, M36L, N37S, R41K, R57K, I62V, L63P, I93L, read-out: ATV phenotype (value before parenthesis, EC50)",9 ± 1.5 nM
same,EC50,"[6]; Human immunodeficiency virus 1, NL43, MT2, NL4-3 450: I50L + L19I, R41K, A71V, T74S, read-out: ATV phenotype (value before parenthesis, EC50)",4.4 ± 2.9 nM
same,EC50,"[6]; Human immunodeficiency virus 1, NL43, MT2, NL4-3 A71V, read-out: ATV phenotype (value before parenthesis, EC50)",2.4 ± 0.04 nM
same,EC50,"[6]; Human immunodeficiency virus 1, NL43, MT2, NL4-3 Control (first group), read-out: ATV phenotype (value before parenthesis, EC50)",0.8 ± 0.3 nM
same,EC50,"[6]; Human immunodeficiency virus 1, NL43, MT2, NL4-3 I50L + A71V, read-out: ATV phenotype (value before parenthesis, EC50)",8.6 ± 1.9 nM
same,EC50,"[6]; Human immunodeficiency virus 1, NL43, MT2, NL4-3 I50L, read-out: ATV phenotype (value before parenthesis, EC50)",3.1 ± 1.6 nM
same,EC50,"[6]; Human immunodeficiency virus 1, NL43, MT2, RF A71V, read-out: ATV phenotype (value before parenthesis, EC50)",0.6 ± 0.2 nM
same,EC50,"[6]; Human immunodeficiency virus 1, NL43, MT2, RF Control, read-out: ATV phenotype (value before parenthesis, EC50)",0.7 ± 0.1 nM
same,EC50,"[6]; Human immunodeficiency virus 1, NL43, MT2, RF I50L + A71V, read-out: ATV phenotype (value before parenthesis, EC50)",4 ± 0.3 nM
same,EC50,"[6]; Human immunodeficiency virus 1, NL43, MT2, RF I50L, read-out: ATV phenotype (value before parenthesis, EC50)",2.2 ± 1.8 nM
same,EC50,"[6]; Human immunodeficiency virus 1, NL43, MT2, read-out: ATV phenotype (value before parenthesis, EC50), LAI 150L + A71V",15.1 ± 4.7 nM
same,EC50,"[6]; Human immunodeficiency virus 1, NL43, MT2, read-out: ATV phenotype (value before parenthesis, EC50), NL4-3 Control (second group, site-directed mutants)",1.5 ± 0.1 nM
same,ATV (Fold Change),[6]; LAI 150L + A71V,10 Fold Change
same,ATV (Fold Change),[6]; LAI A71V,2.4 Fold Change
same,ATV (Fold Change),[6]; LAI I50L,5.4 Fold Change
same,ATV (Fold Change),"[6]; NL4-3 020: I50L + M46I, L63P, H69Q, V77I, I93L",2.5 Fold Change
same,ATV (Fold Change),"[6]; NL4-3 100A: I50L + L63P, K70R, A71V, N88S",31 Fold Change
same,ATV (Fold Change),"[6]; NL4-3 100B: I50L + L63P, K70R, A71V, G73S",37 Fold Change
same,ATV (Fold Change),"[6]; NL4-3 296: I50L + K45R, L63P, A71V, G73S, V77I, I93L",9.5 Fold Change
same,ATV (Fold Change),"[6]; NL4-3 347: I50L + I13V, E35D, M36I, M46L, L63P, A71V, V82A",16 Fold Change
same,ATV (Fold Change),"[6]; NL4-3 372: I50L + L10I, L63P, G73S, I93L",13 Fold Change
same,ATV (Fold Change),"[6]; NL4-3 398: I50L + E35D, M36L, N37S, R41K, R57K, I62V, L63P, I93L",12 Fold Change
same,ATV (Fold Change),"[6]; NL4-3 450: I50L + L19I, R41K, A71V, T74S",5.9 Fold Change
same,ATV (Fold Change),[6]; NL4-3 A71V,1.6 Fold Change
same,ATV (Fold Change),[6]; NL4-3 I50L,2.1 Fold Change
same,ATV (Fold Change),[6]; NL4-3 I50L + A71V,5.9 Fold Change
same,ATV (Fold Change),[6]; RF A71V,0.9 Fold Change
same,ATV (Fold Change),[6]; RF I50L,3 Fold Change
same,ATV (Fold Change),[6]; RF I50L + A71V,5.7 Fold Change
same,decrease in susceptibility,[6]; {},2.1-5.4 fold
same,percentage of isolates remaining susceptible to ATV,[7]; isolates resistant to 1 PI,88%
same,percentage of isolates remaining susceptible to ATV,[7]; isolates resistant to 2 PIs,81%
same,percentage of isolates remaining susceptible to ATV,[7]; isolates resistant to 3 PIs,34%
same,percentage of isolates remaining susceptible to ATV,[7]; isolates resistant to 4 PIs,16%
same,percentage of isolates remaining susceptible to ATV,[7]; isolates resistant to 5 PIs,5%
